Results on 20 compounds are retold here after US9309248B2, “Azaindolines” (Hoffmann-La Roche Inc., priority 2012, dated 2016).

The target in test [1] is T1, BIR2 domain of XIAP (Homo sapiens, UniProt P98170, C202A/C213G).
T1 construct: 6× Histidine-tagged BIR2 domain, corresponding to amino acids 124-240 of XIAP
The experiment in a line: TR-FRET assay for BIR2 (inhibition of binding of XIAP BIR2 domain to SMAC-derived Peptide A). As to conditions: 6x Histidine-tagged BIR2 domain (amino acids 124-240 of XIAP) 10 nM, Peptide A 20 nM. The procedure: (§1) TR-FRET Assay for BIR2 and BIR3
(§2) The ability of a test compound to inhibit the binding of BIR2 and/or BIR3 domains of the XIAP protein to Peptide A (a SMAC-derived peptide described below) evidences that the test compound acts as a SMAC-mimetic resulting in reactivation of a cell's apoptotic pathway.
(§3) The peptides were labeled with the fluorescent tags FITC or TAMRA and Kd values were determined by fluorescence polarization assay. […] The peptide sequence was derivatized with biotin to provide […]-(ε-biotin)-OH 1:2 TFA as the substrate for the TR-FRET assay.
The XIAP protein sequence was obtained from the SWISS-PROT protein sequence database and the BIR2 and BIR3 domains were derived from that. The sequence of the BIR2 domain used for the TR-FRET assay is […].
Time-resolved fluorescence resonance energy transfer (TR-FRET) signals were measured 1 hour later at room temperature. Test compound potency was assessed at 10 serially diluted concentrations. Percentage of inhibition at each concentration was determined to generate an IC50 value for each test compound.
A general note: In TR-FRET formats the signal depends on donor and acceptor labels being close together.

In test [2] the target is T2, BIR3 domain of XIAP (Homo sapiens, UniProt P98170).
T2 construct: BIR3 domain, corresponding to amino acids 241-356 of XIAP
T2 sequence (P98170 with tags, fused parts or gaps): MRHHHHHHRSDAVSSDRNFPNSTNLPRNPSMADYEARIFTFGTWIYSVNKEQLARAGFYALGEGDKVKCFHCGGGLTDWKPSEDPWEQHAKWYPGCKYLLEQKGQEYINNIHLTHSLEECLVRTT
The test is described as follows: TR-FRET assay for BIR3 (inhibition of binding of XIAP BIR3 domain to SMAC-derived Peptide A). As to conditions: 6x Histidine-tagged BIR3 domain (amino acids 241-356 of XIAP) 10 nM, Peptide A 20 nM. The procedure: as §1, §2, §3
The sequence of the BIR3 domain used for the TR-FRET assay is […]
Ten nanomolar of 6× Histidine-tagged BIR2 domain, corresponding to amino acids 124-240 of XIAP, or BIR3 domain, corresponding to amino acids 241-356 of XIAP, was mixed with 20 nM of the peptide […]-(z-biotin)-OH 1:2 TFA, in the presence of 50 mM Tris-Cl, pH 7.5, 100 mM NaCl, 1 mM dithiothreitol (DTT) and 0.1 mg/mL bovine serum albumin (BSA). Following a […] incubation at 37° C., Europium-Streptavidin and Allophycocyanin conjugated anti-Histidine antibody were added to a final concentration of 1.5 nM and 15 nM, respectively. Time-resolved fluorescence resonance energy transfer (TR-FRET) signals were measured 1 hour later at room temperature. Test compound potency was assessed at 10 serially diluted concentrations. Percentage of inhibition at each concentration was determined to generate an IC50 value for each test compound.

Bounds are passed on as bounds.

T1 sequence (P98170 with tags, fused parts or gaps C202A/C213G): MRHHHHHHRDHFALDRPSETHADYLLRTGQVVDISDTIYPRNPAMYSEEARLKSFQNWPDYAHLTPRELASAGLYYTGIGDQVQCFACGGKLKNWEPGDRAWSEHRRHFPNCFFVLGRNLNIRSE

Turning to `CN[C@@H](C)C(=O)N[C@H](C(=O)N1c2ncccc2C[C@H]1C(=O)Nc1c(Cl)cccc1C(F)(F)F)C(C)C` [Example 75, (S)-1-[(S)-3-Methyl-2-((S)-2-methylamino-propionylamino)-butyryl]-2,3-dihydro-1H-pyrrolo[2,3-b]pyridine-2-carboxylic acid (2-chloro-6-trifluoromethyl-phenyl)-amide], the IC50 in test [1] was 57.5 nM; in test [2], over 54800 nM.

Regarding `CCNC(=O)C1Cc2cccnc2N1C(=O)[C@@H](NC(=O)[C@H](C)NC)[C@@H](C)CC` (stereo partly drawn) [Example 6, (R,S)-1-[(2S,3S)-3-Methyl-2-((S)-2-methylamino-propionylamino)-pentanoyl]-2,3-dihydro-1H-pyrrolo[2,3-b]pyridine-2-carboxylic acid ethylamide], the IC50 in test [1] was 1280 nM; in test [2] it was over 54800 nM.

On to `CN[C@@H](C)C(=O)N[C@H](C(=O)N1c2ncccc2C[C@@H]1C(=O)Nc1ccccc1)C(C)C` [Example 12, (R)-1-[(S)-3-Methyl-2-((S)-2-methylamino-propionylamino)-butyryl]-2,3-dihydro-1H-pyrrolo[2,3-b]pyridine-2-carboxylic acid phenylamide], for which the IC50 in test [1] and in test [2] was over 54800 nM each time.

Regarding `CN[C@@H](C)C(=O)N[C@H](C(=O)N1c2ncccc2C[C@H]1C(=O)NCc1cc(F)ccc1C)C(C)C` [Example 55, (S)-1-[(S)-3-Methyl-2-((S)-2-methylamino-propionylamino)-butyryl]-2,3-dihydro-1H-pyrrolo[2,3-b]pyridine-2-carboxylic acid 5-fluoro-2-methyl-benzylamide], the IC50 was 139 nM in test [1] and 35300 nM in test [2].

Consider `CN[C@@H](C)C(=O)N[C@H](C(=O)N1c2ncccc2C[C@@H]1C(=O)Nc1cnccc1C)C(C)C` [Example 20, (R)-1-[(S)-3-Methyl-2-((S)-2-methylamino-propionylamino)-butyryl]-2,3-dihydro-1H-pyrrolo[2,3-b]pyridine-2-carboxylic acid (4-methyl-pyridin-3-yl)-amide], for which the IC50 in test [1] is 1360 nM; in test [2] it was over 54800 nM.

As for `CN[C@@H](C)C(=O)N[C@H](C(=O)N1c2ncccc2C[C@@H]1C(=O)Nc1c(F)cccc1F)C(C)C` [Example 29, (R)-1-[(S)-3-Methyl-2-((S)-2-methylamino-propionylamino)-butyryl]-2,3-dihydro-1H-pyrrolo[2,3-b]pyridine-2-carboxylic acid (2,6-difluoro-phenyl)-amide], the IC50 in test [1] was 421 nM; in test [2], over 54800 nM.

As for `CN[C@@H](C)C(=O)N[C@H](C(=O)N1c2ncccc2C[C@H]1C(=O)NCCS(=O)(=O)N(C)C)C(C)C` [Example 53, (S)-1-[(S)-3-Methyl-2-((S)-2-methylamino-propionylamino)-butyryl]-2,3-dihydro-1H-pyrrolo[2,3-b]pyridine-2-carboxylic acid (2-dimethylsulfamoyl-ethyl)-amide], the IC50 was 740 nM in test [1] and over 54800 nM in test [2].

As for `CN[C@@H](C)C(=O)N[C@H](C(=O)N1c2ncccc2C[C@H]1C(=O)Nc1ccccc1)C(C)C` [Example 11, (S)-1-[(S)-3-Methyl-2-((S)-2-methylamino-propionylamino)-butyryl]-2,3-dihydro-1H-pyrrolo[2,3-b]pyridine-2-carboxylic acid phenylamide], the IC50 in test [1] was 63.5 nM; in test [2] it was over 54800 nM.

Consider `CN[C@@H](C)C(=O)N[C@H](C(=O)N1c2ncccc2C(C)C1C(=O)Nc1c(F)cccc1F)C(C)C` (stereo partly drawn) [Example 98, 3-Methyl-1-[(S)-3-methyl-2-((S)-2-methylamino-propionylamino)-butyryl]-2,3-dihydro-1H-pyrrolo[2,3-b]pyridine-2-carboxylic acid (2,6-difluoro-phenyl)-amide], for which the IC50 is 17 nM in test [1] and over 54800 nM in test [2].

Turning to `CN[C@@H](C)C(=O)N[C@H](C(=O)N1c2ncccc2C[C@H]1C(=O)Nc1ccc(C(=O)OC)cc1F)C(C)C` [Example 49, 3-Fluoro-4-({(S)-1-[(S)-3-methyl-2-((S)-2-methylamino-propionylamino)-butyryl]-2,3-dihydro-1H-pyrrolo[2,3-b]pyridine-2-carbonyl}-amino)-benzoic acid methyl ester], the IC50 was 102 nM in test [1] and over 54800 nM in test [2].

On to `CN[C@@H](C)C(=O)N[C@H](C(=O)N1c2ncccc2C[C@H]1C(=O)Nc1ccccc1-c1ccccc1)C(C)C` [Example 18, (S)-1-[(S)-3-Methyl-2-((S)-2-methylamino-propionylamino)-butyryl]-2,3-dihydro-1H-pyrrolo[2,3-b]pyridine-2-carboxylic acid biphenyl-2-ylamide], for which the IC50 in test [1] was 108 nM; in test [2], 37600 nM.

Turning to `CCN[C@@H](CC)C(=O)N[C@H](C(=O)N1c2ncccc2C[C@H]1C(=O)Nc1ccccc1)C(C)C` [Example 88, (S)-1-[(S)-2-((S)-2-Ethylamino-butyrylamino)-3-methyl-butyryl]-2,3-dihydro-1H-pyrrolo[2,3-b]pyridine-2-carboxylic acid phenylamide], the IC50 is 211 nM in test [1] and over 54800 nM in test [2].

`CCN[C@@H](C)C(=O)N[C@H](C(=O)N1c2ncccc2C[C@H]1C(=O)Nc1c(F)cccc1F)C(C)C` [Example 77, (S)-1-[(S)-2-((S)-2-Ethylamino-propionylamino)-3-methyl-butyryl]-2,3-dihydro-1H-pyrrolo[2,3-b]pyridine-2-carboxylic acid (2,6-difluoro-phenyl)-amide]: the IC50 in test [1] is 46.2 nM; in test [2], over 54800 nM.

Regarding `CN[C@@H](C)C(=O)N[C@H](C(=O)N1c2ncccc2C[C@H]1C(=O)NCc1ccccc1)C(C)C` [Example 16, (S)-1-[(S)-3-Methyl-2-((S)-2-methylamino-propionylamino)-butyryl]-2,3-dihydro-1H-pyrrolo[2,3-b]pyridine-2-carboxylic acid benzylamide], the values for the IC50 in test [1] and in test [2] were 159 nM and 3950 nM, respectively.

As for `CN[C@@H](C)C(=O)N[C@H](C(=O)N1c2ncccc2C[C@H]1C(=O)Nc1c(Cl)cccc1Cl)C(C)C` [Example 74, (S)-1-[(S)-3-Methyl-2-((S)-2-methylamino-propionylamino)-butyryl]-2,3-dihydro-1H-pyrrolo[2,3-b]pyridine-2-carboxylic acid (2,6-dichloro-phenyl)-amide], the IC50 was 16.6 nM in test [1] and over 54800 nM in test [2].

As for `CN[C@@H](C)C(=O)N[C@H](C(=O)N1c2ncccc2C[C@H]1C(=O)Nc1ccccc1OC)C(C)C` [Example 10, (S)-1-[(S)-3-Methyl-2-((S)-2-methylamino-propionylamino)-butyryl]-2,3-dihydro-1H-pyrrolo[2,3-b]pyridine-2-carboxylic acid (2-methoxy-phenyl)-amide], the IC50 in test [1] worked out at 84.1 nM; in test [2], 25900 nM.

Consider `CN[C@@H](C)C(=O)N[C@H](C(=O)N1c2ncccc2C[C@H]1C(=O)Nc1cc(F)cc(F)c1)C(C)C` [Example 23, (S)-1-[(S)-3-Methyl-2-((S)-2-methylamino-propionylamino)-butyryl]-2,3-dihydro-1H-pyrrolo[2,3-b]pyridine-2-carboxylic acid (3,5-difluoro-phenyl)-amide], for which the IC50 in test [1] was 427 nM; in test [2] it was over 54800 nM.

`CNC(=O)c1ccc(NC(=O)[C@@H]2Cc3cccnc3N2C(=O)[C@@H](NC(=O)[C@H](C)NC)C(C)C)c(F)c1` [Example 64, (S)-1-[(S)-3-Methyl-2-((S)-2-methylamino-propionylamino)-butyryl]-2,3-dihydro-1H-pyrrolo[2,3-b]pyridine-2-carboxylic acid (2-fluoro-4-methylcarbamoyl-phenyl)-amide]: the figures for the IC50 in test [1] and in test [2] were 59.6 nM and over 54800 nM, respectively.

On to `CN[C@@H](C)C(=O)N[C@H](C(=O)N1c2ncccc2C[C@H]1C(=O)Nc1ccccc1C(=O)c1ccccc1)C(C)C` [Example 26, (S)-1-[(S)-3-Methyl-2-((S)-2-methylamino-propionylamino)-butyryl]-2,3-dihydro-1H-pyrrolo[2,3-b]pyridine-2-carboxylic acid (2-benzoyl-phenyl)-amide], for which the results for the IC50 in test [1] and in test [2] were 61 nM and 52300 nM, respectively.

Take `CN[C@@H](C)C(=O)N[C@H](C(=O)N1c2ncccc2C[C@H]1C(=O)Nc1cccc(C)c1C)C(C)C` [Example 43, (S)-1-[(S)-3-Methyl-2-((S)-2-methylamino-propionylamino)-butyryl]-2,3-dihydro-1H-pyrrolo[2,3-b]pyridine-2-carboxylic acid (2,3-dimethyl-phenyl)-amide]: the IC50 in test [1] was 71.1 nM; in test [2], over 54800 nM.

For orientation: IC50 means the midpoint of a concentration-inhibition curve. A lower IC50 goes with greater potency.
